In the NIST ThermoML archive (doi:10.1016/j.tca.2015.04.027):

What was measured:
[1] = 87 kPa, Liquid, Vibrating tube method
[2] = xn = mol fraction of the nth substance listed; settings: 87 kPa, Liquid, Vibrating tube method

OC(CCl)CCl [1,3-dichloro-2-propanol]
[1]
Settings | mass density [kg/m3]
298.15 K | 1356.46
303.15 K | 1350.55
308.15 K | 1344.61
313.15 K | 1338.56
318.15 K | 1332.47

OC(CCl)CCl [1,3-dichloro-2-propanol] + C=CCO
mass density [kg/m3], [2]
Settings | 298.15 K | 303.15 K | 308.15 K | 313.15 K | 318.15 K
x1 = 0.0927 | 914.27 | 909.73 | 905.11 | 900.45 | 895.75
x1 = 0.1927 | 978.2 | 973.46 | 968.64 | 963.78 | 958.88
x1 = 0.2704 | 1024.81 | 1019.93 | 1014.97 | 1009.97 | 1004.93
x1 = 0.3548 | 1072.33 | 1067.35 | 1062.2 | 1057.06 | 1051.87
x1 = 0.4555 | 1125.39 | 1120.22 | 1114.94 | 1109.64 | 1104.29
x1 = 0.4973 | 1146.3 | 1141.05 | 1135.75 | 1130.35 | 1124.95
x1 = 0.6062 | 1198.1 | 1192.65 | 1187.2 | 1181.65 | 1176.1
x1 = 0.7166 | 1246.88 | 1241.35 | 1235.7 | 1230.01 | 1224.28
x1 = 0.8004 | 1281.46 | 1275.78 | 1270 | 1264.19 | 1258.35
x1 = 0.8893 | 1316.06 | 1310.26 | 1304.41 | 1298.46 | 1292.49
x1 = 0.9452 | 1336.81 | 1330.96 | 1325.07 | 1319.07 | 1313.05
x1 = 1 | 1356.46 | 1350.55 | 1344.61 | 1338.56 | 1332.47

OC(CCl)CCl [1,3-dichloro-2-propanol] + CCOS(=O)(=O)[O-].CCn1cc[n+](C)c1
mass density [kg/m3], [2]
Settings | 298.15 K | 303.15 K | 308.15 K | 313.15 K | 318.15 K
x1 = 0.0638 | 1239 | 1235.7 | 1232.4 | 1229 | 1225.55
x1 = 0.1199 | 1241.65 | 1238.3 | 1234.9 | 1231.6 | 1228.1
x1 = 0.2073 | 1246.7 | 1243.39 | 1239.87 | 1236.36 | 1232.86
x1 = 0.2973 | 1252.5 | 1249.05 | 1245.5 | 1241.9 | 1238.2
x1 = 0.3964 | 1259.8 | 1256.2 | 1252.5 | 1248.7 | 1245.1
x1 = 0.505 | 1269.3 | 1265.55 | 1261.5 | 1257.6 | 1253.9
x1 = 0.6616 | 1286.79 | 1282.36 | 1278.15 | 1274 | 1270
x1 = 0.7527 | 1300 | 1295.49 | 1291.17 | 1286.8 | 1282.3
x1 = 0.8236 | 1313 | 1308.44 | 1304 | 1299.5 | 1294.6
x1 = 0.9012 | 1329.59 | 1324.72 | 1319.69 | 1314.64 | 1309.58
x1 = 0.9645 | 1346 | 1340.45 | 1335.3 | 1329.4 | 1323.7
x1 = 1 | 1356.46 | 1350.55 | 1344.61 | 1338.56 | 1332.47

CCOS(=O)(=O)[O-].CCn1cc[n+](C)c1 [1-ethyl-3-methylimidazolium ethyl sulfate]
[1]
Settings | mass density [kg/m3]
298.15 K | 1236.42
303.15 K | 1233.09
308.15 K | 1229.72
313.15 K | 1226.36
318.15 K | 1223

CCOS(=O)(=O)[O-].CCn1cc[n+](C)c1 [1-ethyl-3-methylimidazolium ethyl sulfate] + C=CCO
[2], x2 = 0
Settings | mass density [kg/m3]
298.15 K | 1236.42
303.15 K | 1233.09
308.15 K | 1229.72
313.15 K | 1226.36
318.15 K | 1223

CCOS(=O)(=O)[O-].CCn1cc[n+](C)c1 [1-ethyl-3-methylimidazolium ethyl sulfate] + OC(CCl)CCl
[2], x2 = 0
Settings | mass density [kg/m3]
298.15 K | 1236.42
303.15 K | 1233.09
308.15 K | 1229.72
313.15 K | 1226.36
318.15 K | 1223

C=CCO [2-propenol]
[1]
Settings | mass density [kg/m3]
298.15 K | 850.4
303.15 K | 846.02
308.15 K | 841.59
313.15 K | 837.13
318.15 K | 832.63

C=CCO [2-propenol] + CCOS(=O)(=O)[O-].CCn1cc[n+](C)c1
mass density [kg/m3], [2]
Settings | 298.15 K | 303.15 K | 308.15 K | 313.15 K | 318.15 K
x1 = 0.0988 | 1223.65 | 1220.28 | 1216.87 | 1213.47 | 1210.09
x1 = 0.1811 | 1211.14 | 1207.72 | 1204.27 | 1200.85 | 1197.44
x1 = 0.2833 | 1193.07 | 1189.54 | 1186.02 | 1182.52 | 1179.15
x1 = 0.4107 | 1165.72 | 1162.19 | 1158.64 | 1155.11 | 1151.59
x1 = 0.4939 | 1143.57 | 1140.1 | 1136.5 | 1133 | 1129.55
x1 = 0.5909 | 1112.3 | 1109.47 | 1105.88 | 1102.21 | 1098.55
x1 = 0.7086 | 1064.08 | 1061.4 | 1058 | 1054.02 | 1049.98
x1 = 0.8066 | 1012 | 1009.5 | 1005.8 | 1001.87 | 997.66
x1 = 0.9057 | 942.5 | 939.58 | 935.46 | 931.33 | 927.19
x1 = 0.9835 | 869.29 | 865.2 | 860.9 | 856.62 | 852.28
x1 = 1 | 850.4 | 846.02 | 841.59 | 837.13 | 832.63

C=CCO [2-propenol] + OC(CCl)CCl
[2], x2 = 0
Settings | mass density [kg/m3]
298.15 K | 850.4
303.15 K | 846.02
308.15 K | 841.59
313.15 K | 837.13
318.15 K | 832.63
